PubChem BioAssay AID248 (DTP/NCI, 2004)
Where “and” joins values, the source holds several entries; their conditions need not be identical. Identical values can stand only once. Inconclusive results and toxic doses are left out. Rule as the data show it: active = T/C of 150% or more; inactive = T/C below 125%.

Test system: L1210 leukemia ip in BDF1 mice, survival T/C
Assay: NCI In Vivo Anticancer Drug Screen. Data for tumor model L1210 Leukemia (intraperitoneal) in B6D2F1 (BDF1) mice
Conditions: endpoint: mean survival time, higher = longer survival
Procedure, shortened: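 Read-out is survival time, reported as the treated-group measurement over the vehicle-control measurement.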

[1] = dose: 100.0 mg/kg/injection, schedule: Q04DX003 (ip), vehicle: Klucel (hydroxypropylcellulose) (HPC)
[2] = dose: 200.0 mg/kg/injection, schedule: Q04DX003 (ip), vehicle: Klucel (hydroxypropylcellulose) (HPC)
[3] = dose: 400.0 mg/kg/injection, schedule: Q04DX003 (ip), vehicle: Klucel (hydroxypropylcellulose) (HPC)
[4] = dose: 100.0 mg/kg/injection, schedule: Q01DX009 (ip), vehicle: saline
[5] = dose: 100.0 mg/kg/injection, schedule: Q04DX003 (ip), vehicle: saline
[6] = dose: 200.0 mg/kg/injection, schedule: Q04DX003 (ip), vehicle: saline

Measured: T/C

Cc1ccc(S(=O)(=O)OC2CCCCC2c2ccccc2C)cc1 (stereo unspecified)
inactive: dose: 100.0 mg/kg/injection, schedule: Q01DX001 (ip), vehicle: steriod suspending solution 105 % of control | dose: 200.0 mg/kg/injection, schedule: Q01DX001 (ip), vehicle: steriod suspending solution 112 % of control | dose: 400.0 mg/kg/injection, schedule: Q01DX001 (ip), vehicle: steriod suspending solution 98 % of control

CNc1ccc(N=Nc2ccc3ncccc3c2)cc1
inactive: dose: 3.8 mg/kg/injection, schedule: Q01DX009 (ip), vehicle: saline 98 % of control | dose: 6.7 mg/kg/injection, schedule: Q01DX Z (ip), vehicle: carboxymethylcellulose (CMC) 98 % of control | dose: 7.5 mg/kg/injection, schedule: Q01DX009 (ip), vehicle: saline 102 % of control | dose: 10.0 mg/kg/injection, schedule: Q01DX Z (ip), vehicle: carboxymethylcellulose (CMC) 92 % of control | dose: 15.0 mg/kg/injection, schedule: Q01DX009 (ip), vehicle: saline 98 % of control | dose: 15.0 mg/kg/injection, schedule: Q01DX Z (ip), vehicle: carboxymethylcellulose (CMC) 92 % of control | dose: 30.0 mg/kg/injection, schedule: Q01DX009 (ip), vehicle: saline 89 % of control

Cn1c(C(N)=O)cc(=O)n1-c1ccc([N+](=O)[O-])cc1
inactive: [1] 101 % of control | [2] 97 % of control | [3] 101 % of control

CCCCN/C(C)=C/C(=O)/C=C(\C)NCCCC
inactive: dose: 100.0 mg/kg/injection, schedule: Q01DX009 (ip), vehicle: Klucel (hydroxypropylcellulose) (HPC) 94 % of control | [1] 117 % of control | dose: 200.0 mg/kg/injection, schedule: Q01DX009 (ip), vehicle: Klucel (hydroxypropylcellulose) (HPC) 110 % of control | [2] 96 % of control | dose: 400.0 mg/kg/injection, schedule: Q01DX009 (ip), vehicle: Klucel (hydroxypropylcellulose) (HPC) 95 % of control | [3] 100 % of control

CCCCCCCCCCCCNC=O
inactive: [4] 94 % of control

C(=N\c1ncn[nH]1)/Nc1ncn[nH]1
inactive: [5] 94 % of control | [6] 96 % of control

O=C(C#Cc1ccccc1)Nc1ccccc1
inactive: [1] 114 % of control | [2] 97 % of control | [3] 98 % of control

Cc1cc2c(cc1C)C(O)C(N1CCN(C)CC1)CCC2 (stereo unspecified)
inactive: dose: 50.0 mg/kg/injection, schedule: Q04DX003 (ip), vehicle: saline with Tween-80 103 % of control | dose: 100.0 mg/kg/injection, schedule: Q04DX003 (ip), vehicle: saline with Tween-80 97 % of control | dose: 200.0 mg/kg/injection, schedule: Q04DX003 (ip), vehicle: saline with Tween-80 92 % of control

O=C(N=C1C=CC(=NC(=O)c2ccccc2)C=C1)c1ccccc1
inactive: dose: 75.0 mg/kg/injection, schedule: Q04DX003 (ip), vehicle: Klucel (hydroxypropylcellulose) (HPC) 87 % of control | dose: 150.0 mg/kg/injection, schedule: Q04DX003 (ip), vehicle: Klucel (hydroxypropylcellulose) (HPC) 92 % of control | dose: 300.0 mg/kg/injection, schedule: Q04DX003 (ip), vehicle: Klucel (hydroxypropylcellulose) (HPC) 87 % of control

O=C(O)c1nc2nc(Cl)c(Cl)nc2[nH]1
inactive: dose: 50.0 mg/kg/injection, schedule: Q01DX009 (ip), vehicle: saline 98 % of control | [4] 101 % of control and 90 % of control | [5] 100 % of control | dose: 200.0 mg/kg/injection, schedule: Q01DX009 (ip), vehicle: saline 93 % of control and 96 % of control | [6] 103 % of control | dose: 300.0 mg/kg/injection, schedule: Q01DX009 (ip), vehicle: saline 102 % of control | dose: 400.0 mg/kg/injection, schedule: Q01DX009 (ip), vehicle: saline 91 % of control

Cc1nc2cc(Cc3ccccc3)ccc2o1
inactive: dose: 100.0 mg/kg/injection, schedule: Q04DX003 (ip), vehicle: saline sonified 107 % of control | dose: 200.0 mg/kg/injection, schedule: Q04DX003 (ip), vehicle: saline sonified 105 % of control | dose: 400.0 mg/kg/injection, schedule: Q04DX003 (ip), vehicle: saline sonified 107 % of control
